The values that follow come from patent publication US20250271421A1, “KIT FOR QUANTITATIVE ANALYSIS OF C-REACTIVE PROTEIN, METHOD FOR QUANTITATIVE ANALYSIS OF C-REACTIVE PROTEIN, AND APPARATUS FOR PERFORMING THE SAME” (I-sens, Inc., priority 2024, published 2025).

The subject of series [1] is blood cells in fresh venous whole blood samples (HCT 48%). Nature of the series: Evaluation of hemolytic effect of hemolytic reagents (first absorbance/turbidity). The settings on record: for first absorbance: 750 nm, below 0.05 = hemolytic effect; for hemolytic effects on the blood cells in the blood sample: in most concentration ranges. It is filed as cell-based. Here is the method:
To select hemolytic reagents with a hemolytic effect capable of lysing the blood cells in a blood sample, five candidate hemolytic reagents were selected. Each candidate hemolytic reagent was applied to fresh venous whole blood samples (HCT 48%). The background measurement values (i.e., the first turbidity or first absorbance) of samples treated with each candidate hemolytic reagent were measured. Specifically, the first absorbance of the samples was measured at a wavelength of 750 nm using the A1Care Analyzer by i-SENS, Inc.
The five candidate hemolytic reagents are listed below Table 1. […] A candidate hemolytic reagent was evaluated to have a hemolytic effect on the blood sample if the first turbidity of the sample was below 0.05.

Series [2] deals with immune reaction between CRP and Anti-CRP antibodies. In words: Evaluation of antigen-antibody reactivity by hemolytic reagents (second absorbance, 7-Level CRP Serum Samples). Here is the method: The concentrations of each candidate hemolytic reagent were determined as follows Table 2, taking into account the sample influence, including hematocrit.
Furthermore, each candidate hemolytic reagent was applied to 7-Level CRP Serum Samples, followed by an immune reaction between the hemolyzed samples and latex particles coated with Anti-CRP antibodies. Specifically, latex particles coated with Anti-CRP antibodies supplied by RANDOX were concentrated and stabilized with the addition of a stabilizer. The immune reaction was configured to occur between the hemolyzed samples and the latex particles coated with Anti-CRP antibodies.
After the immune reaction, the absorbance of each sample after the immune reaction (referred to as the second absorbance or second turbidity) was measured. Specifically, the second absorbance of the samples was measured at a wavelength of 750 nm using the A1Care Analyzer by i-SENS, Inc.
As for the control group, the experiment was designed to measure the second absorbance after the immune reaction between the 7-Level CRP Serum Samples without the addition of any hemolytic reagent and the latex particles coated with Anti-CRP antibodies. Additionally, the concentrations of the 7-Level CRP Serum Samples were varied from 0 to 195.8 mg/L, and the second absorbance was measured for each sample.

Series [3] relates to immunoreagent (R2) containing Anti-CRP antibodies (latex particles coated with Anti-CRP antibodies). Nature of the series: Accelerated stability by stabilizers (2), 50° C., 7 days, 3-Level CRP Serum Samples. The series is classed as physicochemical. The settings on record: 100 mM. Here is the method: To select a stabilizer for ensuring the storage stability of the immunoreagent (R2) containing Anti-CRP antibodies, two candidate stabilizers (Trehalose and Sucrose) with confirmed through Experimental Example 4 storage stability effects were prepared. Each candidate stabilizer was added to latex particles coated with Anti-CRP antibodies and dried. The reagent solution and 3-Level CRP Serum Samples (CRP 10 mg/L, 50 mg/L, 150 mg/L) were added to the dried compositions, and the immune reaction between CRP and Anti-CRP antibodies was carried out. After the immune reaction, the absorbance was measured to obtain the baseline measurement value of storage on day 0.
Each candidate stabilizer was added to latex particles coated with Anti-CRP antibodies, and the dried compositions were stored in an oven at 50° C. The reagent solution was stored separately under refrigeration. At 1-day intervals over a period of 7 days, the reagent solution and 3-Level CRP Serum Samples (CRP 10 mg/L, 50 mg/L, 150 mg/L) were added to the dried compositions containing each candidate stabilizer. The immune reaction between CRP and Anti-CRP antibodies was conducted, and the absorbance after the immune reaction was measured to obtain the measurement values for storage days 1, 2, 3, 4, 5, 6, and 7.
Based on the baseline measurement value and the measurement values obtained during the storage period, deviations (Bias) were calculated.
Additionally, for each condition, the experiment was repeated 5 times, and precision (CV) was calculated.
The two candidate stabilizers are listed below Table 5, and stabilizers with deviations (Bias) measured within 20% throughout the storage period were evaluated as effective for ensuring the storage stability of the immunoreagent (R2). Stabilizers with precision (CV) measured within 10% were evaluated as having excellent precision.

Series [4] has the same test system. In words: Accelerated stability by stabilizers (1), 50° C., 7 days, 1-Level CRP Serum Sample. The series is classed as physicochemical. The conditions noted are these: stabilizer concentrations as in Table 4. Here is the method:
To select a stabilizer that ensures the storage stability of the immunoreagent (R2) containing Anti-CRP antibodies, five candidate stabilizers were chosen. Each candidate stabilizer was added to latex particles coated with Anti-CRP antibodies and dried. The reagent solution and 1-Level CRP Serum Sample (CRP 60 mg/L) were added to the dried composition to facilitate the immune reaction between CRP and Anti-CRP antibodies. After the immune reaction, the absorbance was measured to obtain the baseline measurement value for storage on day 0. […]
Furthermore, the dried compositions, containing each candidate stabilizer added to latex particles coated with Anti-CRP antibodies, were stored in an oven at 50° C. […] The immune reaction between CRP and Anti-CRP antibodies was carried out, and the absorbance after the immune reaction was measured to obtain the measurement values for storage days 1, 2, 3, 4, 5, 6, and 7.
As for the control group, the experiment was configured to measure the absorbance after the immune reaction between the 1-Level CRP Serum Sample (CRP 60 mg/L) without the addition of any stabilizer and latex particles coated with Anti-CRP antibodies.
Furthermore, deviations (Bias) were calculated based on the baseline measurement value and the measurement values obtained over the storage period. […]

Setting [5] is: CRP Serum (50 mg/L, Mid), up to storage day 7.
Setting [6] is: CRP Serum (150 mg/L, High), up to storage day 7.

In the case of `CCCCCCCCCCCCCC(=O)NCCC[N+](C)(C)CCCS(=O)(=O)[O-]` [ASB-14], the results for the first absorbance result in series [1] (reagent concentration range 0.01-0.03 (w/v %)) and in series [1] (reagent concentration range 0.04-0.20 (w/v %)) were “greater than 0.05” and “less than 0.05”, respectively. In series [1], the “hemolytic effects on the blood cells in the blood sample” value is listed as “exhibited hemolytic effects”. Besides, the “decrease of absorbance corresponding to the CRP concentration compared to the control group” value in series [2] (750 nm, 0.05% ASB-14, CRP serum 0 to 195.8 mg/L) is given as ≥ 50%.

Take `OC[C@H]1O[C@@](CO)(O[C@H]2O[C@H](CO)[C@@H](O)[C@H](O)[C@H]2O)[C@@H](O)[C@@H]1O` [Sucrose]: the “deviation (Bias) compared to baseline on day 0” value in series [3] (CRP Serum (10 mg/L, Low), up to storage day 7) is on record as ≤ 20%; in series [3] (setting [5]), ≤ 20%; in series [3] (setting [6]), ≤ 20%. The “dissolution of the dried Anti-CRP antibodies (visually confirmed)” value in series [4] was “dissolved properly”.

Regarding `OC[C@H]1O[C@H](O[C@H]2O[C@H](CO)[C@@H](O)[C@H](O)[C@H]2O)[C@H](O)[C@@H](O)[C@@H]1O` [Trehalose], the “deviation (Bias) compared to baseline on day 0” value is > 20% in series [3] (CRP Serum (10 mg/L, Low), storage days 5 and 7); ≤ 20% in series [3] (setting [5]); ≤ 20% in series [3] (setting [6]). In series [4], the “dissolution of the dried Anti-CRP antibodies (visually confirmed)” value was “dissolved properly”.

Turning to Sodium deoxycholate [SDC], the first absorbance entry in series [1] (reagent concentration range 0.10-0.11 (w/v %)) was “greater than 0.05”; in series [1] (reagent concentration range 0.12-0.20 (w/v %)) it was “less than 0.05”. Moreover, the “hemolytic effects on the blood cells in the blood sample” value in series [1] was “exhibited hemolytic effects”. For the same compound, in series [2] (0.13% SDC, 0.03% Saponin), the “effect of the hemolytic reaction on the antigen-antibody reaction between CRP and Anti-CRP antibodies” value was “did not affect the antigen-antibody reaction”.
